{"source": "patent US11541055B2", "about": "“Inhibitors of human immunodeficiency virus replication” (ViiV Healthcare UK (No. 5) LIMITED, priority 2018, dated 2023)", "key": {"[1]": {"tested_on": "recombinant NL4-3 virus (Renilla luciferase) in MT-2 cells", "assay": "HIV cell culture assay (antiviral activity, luciferase readout)", "type": "cell-based", "conditions": "Renilla, NL43", "description": "HIV cell culture assay—MT-2 cells, 293T cells and the proviral DNA clone of NL4-3 virus were obtained from the NIH AIDS Research and Reference Reagent Program. MT-2 cells were propagated in RPMI 1640 media supplemented with 10% heat inactivated fetal bovine serum (FBS), […]. The 293T cells were propagated in DMEM media supplemented with 10% heat inactivated FBS, […] penicillin G and […] streptomycin. A recombinant NL40.3 proviral clone, in which a section of the nef gene was replaced with the Renilla luciferase gene, was used to make the reference virus used in these studies. The recombinant virus was prepared through transfection of the recombinant NL4-3 proviral clone into 293T cells using Transit-293 Transfection Reagent from Minis Bio LLC (Madison, Wis.). Supernatent was harvested after 2-3 days and the amount of virus present was titered in MT-2 cells using luciferase enzyme activity as a marker by measuring luciferase enzyme activity. Luciferase was quantitated using the EnduRen Live Cell Substrate from Promega (Madison, Wis.). Antiviral activities of compounds toward the recombinant virus were quantified by measuring luciferase activity in MT-2 cells infected for 4-5 days with the recombinant virus in the presence of serial dilutions of the compound.\nThe 50% effective concentration (EC50) was calculated by using the exponential form of the median effect equation where (Fa)=1/[1+(ED50/drug conc.)m] (Johnson V A, Byington R T. Infectivity Assay. In Techniques in HIV Research. ed. Aldovini A, Walker B D. 71-76. New York: Stockton Press. 1990). The 50% inhibitory concentration (EC50) was calculated by using the exponential form of the median effect equation where percent inhibition=1/[1+(EC50/drug concentration)m], where m is a parameter that reflects the slope of the concentration-response curve."}, "[2]": {"assay": "Compound cytotoxicity, XTT-based colorimetric assay", "type": "cell-based", "conditions": "human; uninfected MT2 cells, day 4, XTT", "description": "Compound cytotoxicity and the corresponding CC50 values were determined using the same protocol as described in the antiviral assay except that uninfected cells were used. Cytotoxicity was assessed on day 4 in uninfected MT2 cells by using a XTT (2,3-bis[2-Methoxy-4-nitro-5-sulfophenyl]-2H-tetrazolium-5-carboxyanilide inner salt)-based colorimetric assay (Sigma-Aldrich, St Louis, Mo.)."}}}
{"smiles": "CS(=O)(=O)Nc1nn(CC(F)(F)F)c2c(-n3c([C@H](Cc4cc(F)cc(F)c4)NC(=O)Cn4nc(C(F)F)c5c4C(F)(F)[C@@H]4C[C@H]54)nc4cc(-c5nccc(C(F)F)n5)ccc4c3=O)ccc(Cl)c12", "note": "(atropisomer, axis not shown) [Example 104, N-[(1S)-1-{3-[4-chloro-3-methanesulfonamido-1-(2,2,2-trifluoroethyl)-1H-indazol-7-yl]-7-[4-(difluoromethyl)pyrimidin-2-yl]-4-oxo-3,4-dihydroquinazolin-2-yl}-2-(3,5-difluorophenyl)ethyl]-2-[(2S,4R)-9-(difluoromethyl)-5,5-difluoro-7,8-diazatricyclo[4.3.0.0^2,^4]nona-1(6),8-dien-7-yl]acetamide]", "values": [{"measurement": "EC50", "setting": "[1]", "value": 0.063, "unit": "nM"}, {"measurement": "CC50 at 4 days", "setting": "[2]", "value": "> 500", "unit": "nM"}]}
{"smiles": "Cc1nc(-c2ccc3c(=O)n(-c4ccc(Cl)c5c(NS(C)(=O)=O)nn(C)c45)c([C@H](Cc4cc(F)cc(F)c4)NC(=O)Cn4nc(C(F)F)c5c4C(F)(F)[C@@H]4C[C@H]54)nc3c2)cc(C(F)(F)F)n1", "note": "(atropisomer, axis not shown; (P)) [Example 63, N—((S)-1-((3P)-3-(4-chloro-1-methyl-3-(methylsulfonamido)-1H-indazol-7-yl)-7-(2-methyl-6-(trifluoromethyl)pyrimidin-4-yl)-4-oxo-3,4-dihydroquinazolin-2-yl)-2-(3,5-difluorophenyl)ethyl)-2-((3bS,4aR)-3-(difluoromethyl)-5,5-difluoro-3b,4,4a,5-tetrahydro-1H-cyclopropa[3,4]cyclopenta[1,2-c]pyrazol-1-yl)acetamide]", "values": [{"measurement": "EC50", "setting": "[1]", "value": 0.33, "unit": "nM"}, {"measurement": "CC50 at 4 days", "setting": "[2]", "value": "> 500", "unit": "nM"}]}
{"smiles": "Cn1nc(NS(C)(=O)=O)c2c(Cl)ccc(-n3c([C@H](Cc4cc(F)cc(F)c4)NC(=O)Cn4nc(C(F)F)c5c4C(F)(F)[C@@H]4C[C@H]54)nc4cc(-c5cc(S(C)(=O)=O)ccn5)ccc4c3=O)c21", "note": "(atropisomer, axis not shown; (P)) [Example 4, N—((S)-1-((3P)-3-(4-chloro-1-methyl-3-(methylsulfonamido)-1H-indazol-7-yl)-7-(4-(methylsulfonyl)pyridin-2-yl)-4-oxo-3,4-dihydroquinazolin-2-yl)-2-(3,5-difluorophenyl)ethyl)-2-((3bS,4aR)-3-(difluoromethyl)-5,5-difluoro-3b,4,4a,5-tetrahydro-1H-cyclopropa[3,4]cyclopenta[1,2-c]pyrazol-1-yl)acetamide]", "values": [{"measurement": "EC50", "setting": "[1]", "value": 0.053, "unit": "nM"}, {"measurement": "CC50 at 4 days", "setting": "[2]", "value": "> 500", "unit": "nM"}]}
{"smiles": "CS(=O)(=O)c1cccnc1-c1ccc2c(=O)n(-c3ccc(Cl)c4c(NS(=O)(=O)C5CC5)nn(CC(F)F)c34)c([C@H](Cc3cc(F)cc(F)c3)NC(=O)Cn3nc(C(F)F)c4c3C(F)(F)[C@@H]3C[C@H]43)nc2c1", "note": "(atropisomer, axis not shown; (P)) [Example 95, N—((S)-1-((3P)-3-(4-chloro-3-(cyclopropanesulfonamido)-1-(2,2-difluoroethyl)-1H-indazol-7-yl)-7-(3-(methylsulfonyl)pyridin-2-yl)-4-oxo-3,4-dihydroquinazolin-2-yl)-2-(3,5-difluorophenyl)ethyl)-2-((3bS,4aR)-3-(difluoromethyl)-5,5-difluoro-3b,4,4a,5-tetrahydro-1H-cyclopropa[3,4]cyclopenta[1,2-c]pyrazol-1-yl)acetamide]", "values": [{"measurement": "EC50", "setting": "[1]", "value": 0.053, "unit": "nM"}, {"measurement": "CC50 at 4 days", "setting": "[2]", "value": "> 500", "unit": "nM"}]}
{"smiles": "Cn1nc(NS(C)(=O)=O)c2c(Cl)ccc(-n3c([C@H](Cc4cc(F)cc(F)c4)NC(=O)Cn4nc(C(F)F)c5c4C(F)(F)[C@@H]4C[C@H]54)nc4cc(-c5nccc(C(F)(F)F)n5)ccc4c3=O)c21", "note": "(atropisomer, axis not shown; (P)) [Example 3, N—((S)-1-((3P)-3-(4-chloro-1-methyl-3-(methylsulfonamido)-1H-indazol-7-yl)-4-oxo-7-(4-(trifluoromethyl)pyrimidin-2-yl)-3,4-dihydroquinazolin-2-yl)-2-(3,5-difluorophenyl)ethyl)-2-((3bS,4aR)-3-(difluoromethyl)-5,5-difluoro-3b,4,4a,5-tetrahydro-1H-cyclopropa[3,4]cyclopenta[1,2-c]pyrazol-1-yl)acetamide]", "values": [{"measurement": "EC50", "setting": "[1]", "value": 0.1, "unit": "nM"}, {"measurement": "CC50 at 4 days", "setting": "[2]", "value": "> 500", "unit": "nM"}]}
{"smiles": "Cc1ccc(-n2c([C@H](Cc3cc(F)cc(F)c3)NC(=O)Cn3nc(C(F)F)c4c3C(F)(F)[C@@H]3C[C@H]43)nc3cc(-c4cccnn4)ccc3c2=O)c2c1c(NS(C)(=O)=O)nn2C", "note": "(atropisomer, axis not shown) [Example 141, 2-[(2S,4R)-9-(difluoromethyl)-5,5-difluoro-7,8-diazatricyclo[4.3.0.0^2,^4]nona-1(6),8-dien-7-yl]-N-[(1S)-2-(3,5-difluorophenyl)-1-[3-(3-methanesulfonamido-1,4-dimethyl-1H-indazol-7-yl)-4-oxo-7-(pyridazin-3-yl)-3,4-dihydroquinazolin-2-yl]ethyl]acetamide]", "values": [{"measurement": "EC50", "setting": "[1]", "value": 0.13, "unit": "nM"}, {"measurement": "CC50 at 4 days", "setting": "[2]", "value": "> 500", "unit": "nM"}]}
{"smiles": "CCC(C)c1nccc(-c2ccc3c(=O)n(-c4ccc(Cl)c5c(NS(C)(=O)=O)nn(C)c45)c([C@H](Cc4cc(F)cc(F)c4)NC(=O)Cn4nc(C(F)F)c5c4C(F)(F)[C@@H]4C[C@H]54)nc3c2)n1", "note": "(stereo partly drawn) [Example 70, N-((1S)-1-(7-(2-(sec-butyl)pyrimidin-4-yl)-(3P)-3-(4-chloro-1-methyl-3-(methylsulfonamido)-1H-indazol-7-yl)-4-oxo-3,4-dihydroquinazolin-2-yl)-2-(3,5-difluorophenyl)ethyl)-2-((3bS,4aR)-3-(difluoromethyl)-5,5-difluoro-3b,4,4a,5-tetrahydro-1H-cyclopropa[3,4]cyclopenta[1,2-c]pyrazol-1-yl)acetamide]", "values": [{"measurement": "EC50", "setting": "[1]", "value": 0.26, "unit": "nM"}, {"measurement": "CC50 at 4 days", "setting": "[2]", "value": "> 500", "unit": "nM"}]}
{"smiles": "CN(c1ccc(-c2ccc3c(=O)n(-c4ccc(Cl)c5c(NS(C)(=O)=O)nn(C)c45)c([C@H](Cc4cc(F)cc(F)c4)NC(=O)Cn4nc(C(F)F)c5c4C(F)(F)[C@@H]4C[C@H]54)nc3c2)cc1)S(C)(=O)=O", "note": "[Example 29, N—((S)-1-((3P)-3-(4-chloro-1-methyl-3-(methylsulfonamido)-1H-indazol-7-yl)-7-(4-(N-methylmethylsulfonamido)phenyl)-4-oxo-3,4-dihydroquinazolin-2-yl)-2-(3,5-difluorophenyl)ethyl)-2-((3bS,4aR)-3-(difluoromethyl)-5,5-difluoro-3b,4,4a,5-tetrahydro-1H-cyclopropa[3,4]cyclopenta[1,2-c]pyrazol-1-yl)acetamide]", "values": [{"measurement": "EC50", "setting": "[1]", "value": 0.29, "unit": "nM"}, {"measurement": "CC50 at 4 days", "setting": "[2]", "value": "> 500", "unit": "nM"}]}
{"smiles": "CCc1ccnc(-c2ccc3c(=O)n(-c4ccc(Cl)c5c(NS(C)(=O)=O)nn(C)c45)c([C@H](Cc4cc(F)cc(F)c4)NC(=O)Cn4nc(C(F)F)c5c4C(F)(F)[C@@H]4C[C@H]54)nc3c2)n1", "note": "(atropisomer, axis not shown; (P)) [Example 43, N—((S)-1-((3P)-3-(4-chloro-1-methyl-3-(methylsulfonamido)-1H-indazol-7-yl)-7-(4-ethylpyrimidin-2-yl)-4-oxo-3,4-dihydroquinazolin-2-yl)-2-(3,5-difluorophenyl)ethyl)-2-((3bS,4aR)-3-(difluoromethyl)-5,5-difluoro-3b,4,4a,5-tetrahydro-1H-cyclopropa[3,4]cyclopenta[1,2-c]pyrazol-1-yl)acetamide]", "values": [{"measurement": "EC50", "setting": "[1]", "value": 0.058, "unit": "nM"}, {"measurement": "CC50 at 4 days", "setting": "[2]", "value": "> 500", "unit": "nM"}]}
